Assay results: BigSolDB 2.1

O=C1CCc2ccc(OCCCCN3CCN(c4cccc(Cl)c4Cl)CC3)cc2N1
solubility (mole fraction)
Details	278.15 K	283.15 K	288.15 K	293.15 K	298.15 K	303.15 K	308.15 K	313.15 K	318.15 K
in acetone	1.97e-05	2.73e-05	3.6e-05	4.71e-05	5.94e-05	7.32e-05	8.93e-05	0.00011	0.000135
in isopropanol	6.32e-06	9.1e-06	1.22e-05	1.68e-05	2.25e-05	2.94e-05	3.89e-05	5.05e-05	6.38e-05
in n-propanol	1.46e-05	1.93e-05	2.57e-05	3.28e-05	4.12e-05	5.37e-05	6.72e-05	8.32e-05	0.000103
